{"source": "patent US5110976A", "about": "“Insecticidal composition comprising more than one active ingredient” (priority 1985, dated 1992)", "key": {"Colorado potato beetle": {"system": "Colorado potato beetle", "experiment": "Plot field test on Colorado potato beetle (Table 24)", "assay_type": "in vivo, adults", "details": "10 g active ingredients/ha", "method": "The treatments are performed on a 25 m^2 plot strongly infected with Colorado potato beetle. 10 plants per plot are specially marked on which the Colorado potato beetles were counted previously. (During assessment of the number of pests only adults of the second Summer generation are taken into consideration, because at the point of time of the test the ratio of larvae of stages L3 and L4 is negligible). Treatment is accomplished on 25 M^2 plots at a dose of 10 g of active ingredients/ha with aqueous suspensions of the formulations according to Example 37 and three parallels are used. The test is evaluated by counting the leave insects on the marked plants. The average values of three parallel tests are disclosed in Table 24."}, "T. confusum": {"system": "T. confusum", "experiment": "Contact test with piperonyl butoxide (Table 17)", "assay_type": "in vivo, flour-beetle (T. confusum), imagos", "method": "The active ingredient is dissolved in a 1:2 mixture of oil and acetone; filter paper discs (Whatman No. 1, diameter 9 cm) are impregnated with the solutions of the corresponding stereoisomers and enantiomer-pairs, respectively. The acetone is allowed to evaporate, whereupon the insects are exposed to filter papers discs placed in Petri-dishes. Three parallels are used on each dose and 15 insects are placed into each Petri-dish. The percental mortality is determined after 24 hours. The corrected percent mortality is calculated by means of the Abbot Formula.\nImagos of flour-beetle (T. confusum) are treated in an analogous manner to Example 41. As synergist piperonyl butoxide is used in a dose of 0.5 mg/disc."}, "Myzus persicae": {"system": "Myzus persicae", "experiment": "5 EC formulations on aphid-infected bean plants (Table 22)", "assay_type": "in vivo, green peach aphids (Myzus persicae)", "method": "15 bean plants infected with green peach aphids (Myzus persicae) at 6 days' age are cultivated in each pot. At 12 days' age the strongly and uniformly infected plants are selected and sprayed to run-off with emulsions freshly prepared from the formulation according to Example 42. Treatments are carried out with three doses (active ingredient 2.5, 5 and 10 ppm) and four parallels are used (one pot per parallel). The second, fourth and eighth day after treatment the aphids are swept down from the plants to a white paper with a fine brush and the live insects are counted."}, "[1]": {"system": "Leptinotarsa decemlineara larvae", "experiment": "Paralysis of larvae on sprayed tomato plants (Table 23)", "assay_type": "in vivo, L3 stage larvae", "details": "6 hours", "method": "Tomato plants pre-cultivated in pots are sprayed with a suspension of the active ingredient formed with a mixture of acetone and water. The treated plants are placed into isolators and infected with L3 stage Leptinotarsa decemlineara larvae. The percental ratio of paralyzed larvae which fall down from the plants is determined after 6 hours."}}}
{"compound": "CC1(C)C(C=C(Cl)Cl)C1C(=O)OC(C#N)c1cccc(Oc2ccccc2)c1", "note": "(centres unmarked) [Ia:Ib = 4:6]", "values": [{"measurement": "Average number of live insects/10 plants", "setting": "Colorado potato beetle; 0 days after treatment (control 211)", "value": 213}, {"measurement": "Average number of live insects/10 plants", "setting": "Colorado potato beetle; 1 day after treatment (control 206)", "value": 8}, {"measurement": "Average number of live insects/10 plants", "setting": "Colorado potato beetle; 3 days after treatment (control 179)", "value": 4}, {"measurement": "Average number of live insects/10 plants", "setting": "Colorado potato beetle; 9 days after treatment (control 183)", "value": 22}, {"measurement": "synergizability with piperonyl butoxide", "setting": "T. confusum; Ia:Ib=4:6 mixture versus Ia", "value": "can be synergized to a larger extent than enantiomer Ia"}, {"measurement": "mortality at 25 µg/disc", "setting": "T. confusum; Tribolium confusum, 24 h, 0.025 mg/disc, PBO, where added, 0.5 mg/disc", "value": 0, "unit": "%"}, {"measurement": "mortality at 50 µg/disc", "setting": "T. confusum; Tribolium confusum, 24 h, 0.05 mg/disc, PBO, where added, 0.5 mg/disc", "value": 18, "unit": "%"}, {"measurement": "mortality at 100 µg/disc", "setting": "T. confusum; Tribolium confusum, 24 h, 0.1 mg/disc, PBO, where added, 0.5 mg/disc", "value": 57, "unit": "%"}, {"measurement": "mortality at 200 µg/disc", "setting": "T. confusum; Tribolium confusum, 24 h, 0.2 mg/disc, PBO, where added, 0.5 mg/disc", "value": 90, "unit": "%"}, {"measurement": "mortality at 400 µg/disc", "setting": "T. confusum; Tribolium confusum, 24 h, 0.4 mg/disc, PBO, where added, 0.5 mg/disc", "value": 100, "unit": "%"}, {"measurement": "Average number of aphids per pot", "setting": "Myzus persicae; 2.5 ppm, 2 days after treatment (control 1850)", "value": 38}, {"measurement": "Average number of aphids per pot", "setting": "Myzus persicae; 2.5 ppm, 4 days after treatment (control 2780)", "value": 71}, {"measurement": "Average number of aphids per pot", "setting": "Myzus persicae; 2.5 ppm, 8 days after treatment (control 4120)", "value": 251}, {"measurement": "Average number of aphids per pot", "setting": "Myzus persicae; 5.0 ppm, 2 days after treatment (control 1850)", "value": 21}, {"measurement": "Average number of aphids per pot", "setting": "Myzus persicae; 5.0 ppm, 4 days after treatment (control 2780)", "value": 32}, {"measurement": "Average number of aphids per pot", "setting": "Myzus persicae; 5.0 ppm, 8 days after treatment (control 4120)", "value": 82}, {"measurement": "Average number of aphids per pot", "setting": "Myzus persicae; 10.0 ppm, 2 days after treatment (control 1850)", "value": 10}, {"measurement": "Average number of aphids per pot", "setting": "Myzus persicae; 10.0 ppm, 4 days after treatment (control 2780)", "value": 11}, {"measurement": "Average number of aphids per pot", "setting": "Myzus persicae; 10.0 ppm, 8 days after treatment (control 4120)", "value": 21}, {"measurement": "% ratio of paralyzed larvae", "setting": "[1]; 8 ppm", "value": 60, "unit": "%"}, {"measurement": "% ratio of paralyzed larvae", "setting": "[1]; 40 ppm", "value": 75, "unit": "%"}, {"measurement": "% ratio of paralyzed larvae", "setting": "[1]; 200 ppm", "value": 100, "unit": "%"}, {"measurement": "% ratio of paralyzed larvae", "setting": "[1]; 1000 ppm", "value": 100, "unit": "%"}]}
